Assay results taken from patent US10898481B2 (priority 2018, dated 2021).
Where two headings read alike, the source gives them in different places.

What was measured:
[1] = target: hA2a/CHO (Homo sapiens (Human), UniProt P29274); assay: cAMP inhibition assay in hA2a/CHO cells, 10 μM adenosine; type: cell-based;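 note: compounds added to cells 30 min ahead of adenosine, then a further 30 min at 37 °C with adenosine before cAMP detection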
Protocol: (§1) hA2a/CHO, hA2b/CHO, hA3/CHO and mA2a/CHO (Genscript) were plated at 5×10^3 cells/well into 384-well polystyrene plates at the day of experiment. Compounds were pre-incubated with cells for 30 min at 37° C., 5% CO2. Then 10 μM adenosine was added to the cells and incubated for 30 min at 37° C., 5% CO2. Detection reagent (CISBIO) was added and the plates were incubated for 60 min at room temperature. The signal was captured by Envision.

[2] = target: hA2b/CHO (Homo sapiens (Human), UniProt P29275); assay: cAMP inhibition assay in hA2b/CHO cells, 10 μM adenosine; type: cell-based;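 note: cells exposed to compound 30 min at 37 °C, then stimulated with adenosine a further 30 min, cAMP read after 60 min at room temperature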
Protocol: as §1

[3] = target: mA2a/CHO (Mus musculus (Mouse), UniProt Q60613); assay: cAMP inhibition assay in mA2a/CHO cells, 10 μM adenosine; type: cell-based;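 note: compounds preincubated 30 min at 37 °C before the adenosine challenge, then 30 min further stimulation, readout after 60 min detection reagent incubation at room temperature in 384-well plates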
Protocol: as §1

[4] = target: hADORA1/CHO (hA1 expressing) cells (Homo sapiens (Human), UniProt P30542); assay: cell-based; settings: 10 μM adenosine
Protocol: hADORA1/CHO (hA1 expressing) cells (Genscript) were plated at 1×10^4 cells/well into 384-well polystyrene plates one day before starting the experiment. On the day of experiment, the supernatant was discard and replaced with 40 μL of dye (FLIPR calcium 5 Assay Kit) per well and the plates were incubated for 60 mins at 37° C. plus 5% CO2. Then testing compounds were added at different concentrations for FLIPR™ inhibition assay. After a 400s incubation with compound, 10 μM adenosine was added into the cells, and the signal was captured by FLIPR.

[5] = read-out: cAMP & FLIPR IC50 (nM) hA2a
[6] = read-out: cAMP & FLIPR IC50 (nM) hA2b
[7] = read-out: cAMP & FLIPR IC50 (nM) mA2a
[8] = FLIPR inhibition, read-out: cAMP & FLIPR IC50 (nM) hA1

Sequence of mA2a/CHO (Q60613 whole entry): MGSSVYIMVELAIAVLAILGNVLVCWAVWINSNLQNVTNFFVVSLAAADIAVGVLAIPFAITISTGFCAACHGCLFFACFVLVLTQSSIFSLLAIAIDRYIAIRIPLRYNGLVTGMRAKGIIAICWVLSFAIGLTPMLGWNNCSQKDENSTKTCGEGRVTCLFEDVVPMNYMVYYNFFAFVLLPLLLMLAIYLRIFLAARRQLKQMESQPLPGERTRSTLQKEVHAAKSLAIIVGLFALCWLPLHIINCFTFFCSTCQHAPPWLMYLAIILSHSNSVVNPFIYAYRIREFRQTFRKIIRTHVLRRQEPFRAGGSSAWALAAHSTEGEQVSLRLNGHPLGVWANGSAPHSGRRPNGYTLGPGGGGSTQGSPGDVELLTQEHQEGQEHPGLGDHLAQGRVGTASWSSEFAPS
Sequence of hA2a/CHO (P29274 whole entry): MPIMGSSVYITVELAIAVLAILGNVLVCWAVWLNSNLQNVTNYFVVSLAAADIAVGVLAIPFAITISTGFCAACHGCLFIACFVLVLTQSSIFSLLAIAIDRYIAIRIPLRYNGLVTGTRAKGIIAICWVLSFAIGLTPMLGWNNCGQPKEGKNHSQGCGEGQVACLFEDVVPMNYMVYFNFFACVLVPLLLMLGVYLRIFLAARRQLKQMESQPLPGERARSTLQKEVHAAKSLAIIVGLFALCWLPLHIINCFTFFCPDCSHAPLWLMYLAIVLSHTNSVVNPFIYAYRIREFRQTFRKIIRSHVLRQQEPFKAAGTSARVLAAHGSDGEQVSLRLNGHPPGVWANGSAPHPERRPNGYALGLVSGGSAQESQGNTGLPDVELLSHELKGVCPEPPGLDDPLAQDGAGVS
Sequence of hA2b/CHO (P29275 whole entry): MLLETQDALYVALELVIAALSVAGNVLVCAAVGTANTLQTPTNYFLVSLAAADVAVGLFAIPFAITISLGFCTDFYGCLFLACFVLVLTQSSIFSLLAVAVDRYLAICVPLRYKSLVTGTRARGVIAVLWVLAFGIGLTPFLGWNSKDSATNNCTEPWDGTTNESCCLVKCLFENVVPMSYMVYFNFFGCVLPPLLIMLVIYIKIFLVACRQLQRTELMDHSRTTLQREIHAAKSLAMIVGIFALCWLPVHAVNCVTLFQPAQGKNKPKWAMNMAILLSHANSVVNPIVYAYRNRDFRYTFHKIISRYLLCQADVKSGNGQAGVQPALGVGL
Sequence of hADORA1/CHO (hA1 expressing) cells (P30542 whole entry): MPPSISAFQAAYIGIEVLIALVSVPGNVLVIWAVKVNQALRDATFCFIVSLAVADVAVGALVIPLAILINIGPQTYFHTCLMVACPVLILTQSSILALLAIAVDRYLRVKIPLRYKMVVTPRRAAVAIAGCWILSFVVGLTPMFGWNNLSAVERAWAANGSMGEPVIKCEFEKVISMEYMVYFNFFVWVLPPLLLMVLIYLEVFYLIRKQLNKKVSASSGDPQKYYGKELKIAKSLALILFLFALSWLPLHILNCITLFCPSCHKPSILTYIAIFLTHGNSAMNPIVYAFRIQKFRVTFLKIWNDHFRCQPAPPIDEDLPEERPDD

SMILES	IC50 [1, 5]	IC50 [2, 6]	IC50 [3, 7]	IC50 [4, 8]	IC50 ([1]; cAMP & FLIPR IC50 (nM) hA2a)	IC50 ([2]; cAMP & FLIPR IC50 (nM) hA2b)	IC50 ([3]; cAMP & FLIPR IC50 (nM) mA2a)	IC50 ([4]; cAMP & FLIPR IC50 (nM) hA1, FLIPR inhibition)
Cc1cnc2ccc(-c3nc(C(=O)NCC4CC(=O)N(C)C4)c(N)nc3-c3ncco3)cn12 (single isomer, unassigned; isomer 1) [Example 213, 3-amino-N-((1-methyl-5-oxopyrrolidin-3-yl)methyl)-6-(3-methylimidazo[1,2-ajpyridin-6-yl)-5-(oxazol-2-yl)pyrazine-2-carboxamide (isomer 1)]	22 nM	2530 nM	54 nM	505 nM				
Nc1nc(-c2ccc(F)cc2)c(-c2ccc(=O)n(C3CC3)c2)nc1C(=O)NCc1c(F)cccc1F [Example 87, 3-amino-6-(1-cyclopropyl-6-oxo-1,6-dihydropyridin-3-yl)-N-(2,6-difluorobenzyl)-5-(4-fluorophenyl)pyrazine-2-carboxamide]	10 nM	153 nM	22 nM	31 nM				
Cc1scnc1CNC(=O)c1nc(-c2ccc3nccn3c2)c(-c2ncco2)nc1N [Example 94, 3-amino-6-[imidazo[1,2-a]pyridin-6-yl]-N-[(5-methyl-1,3-thiazol-4-yl)methyl]-5-(1,3-oxazol-2-yl)pyrazine-2-carboxamide]	3.9 nM	76 nM	34 nM	2960 nM				
COc1c(F)cccc1CNC(=O)c1nc(-c2cc(C)nc(C)c2)c(-c2ccc(F)cc2)nc1N [Example 54, 3-amino-6-(2,6-dimethylpyridin-4-yl)-N-(3-fluoro-2-methoxybenzyl)-5-(4-fluorophenyl)pyrazine-2-carboxamide]	117 nM	≥ 10000 nM	2080 nM	1590 nM				
COC[C@H]1CCCN1C(=O)c1nc(-c2ccc3ncc(C)n3c2)c(-c2ccc(F)cc2)nc1N [Example 204-1, (R)-(3-amino-5-(4-fluorophenyl)-6-(3-methylimidazo[1,2-a]pyridin-6-yl)pyrazin-2-yl)(2-(methoxymethyl)pyrrolidin-1-yl)methanone]	49 nM	> 10000 nM	249 nM	294 nM				
CN(C)c1cccc(CNC(=O)c2nc(-c3ccc(=O)n(C)c3)c(-c3ncco3)nc2N)n1 [Example 15, 3-amino-N-[[6-(dimethylamino)pyridin-2-yl]methyl]-6-(1-methyl-6-oxo-1,6-dihydropyridin-3-yl)-5-(1,3-oxazol-2-yl)pyrazine-2-carboxamide]	39 nM	≥ 10000 nM	86 nM	804 nM				
Cc1cnc2ccc(-c3nc(C(=O)NC[C@H]4CCOC4)c(N)nc3-n3nccn3)cn12 [Example 242, (R)-3-amino-6-(3-methylimidazo[1,2-a]pyridin-6-yl)-N-((tetrahydrofuran-3-yl)methyl)-5-(2H-1,2,3-triazol-2-yl) pyrazine-2-carboxamide]	2.9 nM	683 nM	51 nM	294 nM				
COCCCNC(=O)c1nc(-c2ccc3ncc(C)n3c2)c(-c2ncco2)nc1N [Example 149, 3-amino-N-(3-methoxypropyl)-6-[3-methylimidazo[1,2-a]pyridin-6-yl]-5-(1,3-oxazol-2-yl)pyrazine-2-carboxamide]	1.5 nM	85 nM	7.8 nM	1560 nM				
Cc1cnc2ccc(-c3nc(C(=O)NCC4CN(C)CCO4)c(N)nc3-c3ncco3)cn12 (racemic) [Example 207, rac-3-amino-6-(3-methylimidazo[1,2-a]pyridin-6-yl)-N-((4-methylmorpholin-2-yl)methyl)-5-(oxazol-2-yl)pyrazine-2-carboxamide]	12 nM	774 nM	44 nM	5950 nM				
Cc1cnc2ccc(-c3nc(C(=O)NCc4cnccc4N(C)C)c(N)nc3-c3ncco3)cn12 [Example 118, 3-amino-N-((4-(dimethylamino)pyridin-3-yl)methyl)-6-(3-methylimidazo[1,2-a]pyridin-6-yl)-5-(oxazol-2-yl)pyrazine-2-carboxamide]	3.1 nM	6.8 nM	1.7 nM	35 nM				
CC1CN(c2nc(C(=O)NCc3c(F)cccc3F)c(N)nc2-c2ccc(F)cc2)CC(C)O1 (stereo not drawn) [Example 6, 3-amino-N-(2,6-difluorobenzyl)-6-(2,6-dimethylmorpholino)-5-(4-fluorophenyl)pyrazine-2-carboxamide]	87 nM	≥ 10000 nM	1060 nM	8840 nM				
Cc1cnc2ccc(-c3nc(C(=O)NCC4CC(=O)N(C)C4)c(N)nc3-c3ncco3)cn12 (single isomer, unassigned; isomer 2) [Example 210, 3-amino-N-((1-methyl-5-oxopyrrolidin-3-yl)methyl)-6-(3-methylimidazo[1,2-a]pyridin-6-yl)-5-(oxazol-2-yl)pyrazine-2-carboxamide (isomer 2)]	11 nM	972 nM	88 nM	14700 nM				
Cc1cc(-c2nc(C(=O)NCc3ncccc3OC(F)F)c(N)nc2-c2ccc(F)cc2)cc(C)n1 [Example 57, 3-amino-N-((3-(difluoromethoxy)pyridin-2-yl)methyl)-6-(2,6-dimethylpyridin-4-yl)-5-(4-fluorophenyl)pyrazine-2-carboxamide]					41 nM	1680 nM	278 nM	142 nM
COCCn1cc(-c2nc(C(=O)NCc3c(F)cccc3F)c(N)nc2-c2ncco2)ccc1=O [Example 103, 3-amino-N-[(2,6-difluorophenyl)methyl]-6-[1-(2-methoxyethyl)-6-oxo-1,6-dihydropyridin-3-yl]-5-(1,3-oxazol-2-yl)pyrazine-2-carboxamide]	38 nM	2130 nM	16 nM	272 nM				
COC1CCC(NC(=O)c2nc(-c3ccc4ncc(C)n4c3)c(-c3ncco3)nc2N)CC1 (stereo not drawn) [Example 249, 3-amino-N-(4-methoxycyclohexyl)-6-(3-methylimidazo[1,2-a]pyridin-6-yl)-5-(oxazol-2-yl)pyrazine-2-carboxamide]	5.7 nM	423 nM	50 nM	> 10000 nM				
Cc1cnc2ccc(-c3nc(C(=O)NCc4cccc(N[C@H]5C[C@@H](N(C)C)C5)n4)c(N)nc3-c3ncco3)cn12 [Cmpd. 224, Cis-3-amino-6-[3-methylimidazo[1,2-a]pyridin-6-yl]-5-(1,3-oxazol-2-yl)-N-[(6-[[3-(di-methylamino)cyclobutyl]amino]pyridin-2-yl)methyl]pyrazine-2-carboxamide]	3.2 nM	245 nM	27 nM	7880 nM				
Cc1cnc2ccc(-c3nc(C(=O)NCCOC(F)(F)F)c(N)nc3-c3ncco3)cn12 [Example 148, 3-amino-6-(3-methylimidazo[1,2-a]pyridin-6-yl)-5-(oxazol-2-yl)-N-(2-(trifluoromethoxy)ethyl)pyrazine-2-carboxamide]	0.5 nM	99 nM	1.1 nM	69 nM				
Nc1nc(-c2ncco2)c(-c2ccc3nccn3c2)nc1C(=O)NCc1cscn1 [Example 45, 3-amino-6-[imidazo[1,2-a]pyridin-6-yl]-5-(1,3-oxazol-2-yl)-N-[(1,3-thiazol-4-yl)methyl]pyrazine-2-carboxamide]	94 nM	912 nM	566 nM	10000 nM				
COCCNC(=O)c1nc(-c2ccc3ncc(C)n3c2)c(-n2nccn2)nc1N [Example 243, 3-amino-N-(2-methoxyethyl)-6-(3-methylimidazo[1,2-a]pyridin-6-yl)-5-(2H-1,2,3-triazol-2-yl)pyrazine-2-carboxamide]	7.6 nM	181 nM	30 nM	92 nM				
Cc1cnc2ccc(-c3nc(C(=O)NC[C@@H]4CCCN4)c(N)nc3-c3ncco3)cn12 [Example 123, (S)-3-amino-6-(3-methylimidazo[1,2-a]pyridin-6-yl)-5-(oxazol-2-yl)-N-(pyrrolidin-2-ylmethyl)pyrazine-2-carboxamide]	56 nM	1310 nM	153 nM	10000 nM				
Cc1cc(-c2nc(C(=O)NCc3ccccc3Cl)c(N)nc2-c2ccc(F)cc2)cc(C)n1 [Example 79, 3-amino-N-(2-chlorobenzyl)-6-(2,6-dimethylpyridin-4-yl)-5-(4-fluorophenyl) pyrazine-2-carboxamide]	33 nM	≥ 10000 nM	540 nM	597 nM				
Cc1cc(-c2nc(C(=O)NCc3ccccc3C)c(N)nc2-c2ccc(F)cc2)cc(C)n1 [Example 81, 3-amino-6-(2,6-dimethylpyridin-4-yl)-5-(4-fIuorophenyl)-N-(2-methylbenzyl) pyrazine-2-carboxamide]	98 nM	≥ 10000 nM	301 nM	4750 nM				
Cn1cnc2ccc(-c3nc(C(=O)NCc4ncccc4OCCO)c(N)nc3-c3ccc(F)cc3)cc21 [Example 113, 3-amino-5-(4-fluorophenyl)-N-[[3-(2-hydroxyethoxy)pyridin-2-yl]methyl]-6-(1-methyl-1H-1,3-benzodiazol-6-yl)pyrazine-2-carboxamide]	0.4 nM	68 nM	1 nM	70 nM				
COC(C)CNC(=O)c1nc(-c2ccc3ncc(C)n3c2)c(-c2ncco2)nc1N (racemic) [Example 228, rac-3-amino-N-(2-methoxypropyl)-6-(3-methylimidazo[1,2-a]pyridin-6-yl)-5-(oxazol-2-yl)pyrazine-2-carboxamide]	2.7 nM	210 nM	23 nM	2020 nM				
